We go through seven molecules from patent publication US5614519A, “(1-(2,3 or 4-N-morpholinoalkyl)-imidazol-4-yl)-benizimidazol-1-yl-methyl]-biphenyls useful as angiotensin-II antagonists” (Karl Thomae GmbH, priority 1991, dated 1997).

Molecules are shown by their SMILES.

For the assay, the system named is conscious renally hypertensive rats. Nature of the assay: Effect after oral administration in conscious renally hypertensive rats. In kind it is in vivo, rat. Particulars: 10 mg/kg. Here is the method: In addition, compounds D, E, F, G, H, M and O were tested on conscious renally hypertensive rats for their effect after oral administration using methods known from the literature.
For the molecule `CCCc1nc2c(C)cc(-c3nc4ccccc4n3C)cc2n1Cc1ccc(-c2ccccc2C(=O)O)cc1` [Substance D, 4'-[[2-n-propyl-4-methyl-6-(1-methylbenzimidazol-2-yl)-benzimidazol-1-yl]-methyl]-biphenyl-2-carboxylic acid], the hypotensive effect entry is listed as “hypotensive effect”.
Next, `CCCc1nc2c(C)cc(-c3nc4ccccc4n3C)cc2n1Cc1ccc(-c2ccccc2-c2nnn[nH]2)cc1` [Substance E, 4'-[[2-n-propyl-4-methyl-6-(1-methylbenzimidazol-2-yl)-benzimidazol-1-yl]-methyl]-2-(1H-tetrazol-5-yl)-biphenyl]: “hypotensive effect”.
The entry for `CCCCc1nc2c(C)cc(N3C(=O)C(C)=C(C)C3=O)cc2n1Cc1ccc(-c2ccccc2C(=O)O)cc1` [Substance H, 4'-[[2-n-butyl-6-(2,3-dimethylmaleic acid imino)-4-methyl-benzimidazol-1-yl]-methyl]-biphenyl-2-carboxylic acid semihydrate] is “hypotensive effect”.
As to `Cc1cc(-c2nc3ccccc3n2C)cc2c1nc(C1CC1)n2Cc1ccc(-c2ccccc2C(=O)O)cc1` [Substance M, 4'-[(2-cyclopropyl-4-methyl-6-(1-methylbenzimidazol-2-yl)-benzimidazol-1-yl)-methyl]-biphenyl-2-carboxylic acid], the hypotensive effect result was “hypotensive effect”.
As for `CCCc1nc2c(C)cc(-c3cn4cccnc4n3)cc2n1Cc1ccc(-c2ccccc2-c2nnn[nH]2)cc1` [Substance O, 4'-[(2-n-propyl-4-methyl-6-(imidazo[1,2-a]pyrimidin-2-yl)-benzimidazol-1-yl)-methyl]-2-(1H-tetrazol-5-yl)-biphenyl], the hypotensive effect result is listed as “hypotensive effect”.
For `CCCc1nc2c(C)cc(N3Cc4ccccc4C3=O)cc2n1Cc1ccc(-c2ccccc2-c2nnn[nH]2)cc1` [Substance F, 4'-[[2-n-propyl-4-methyl-6-(1-oxo-isoindolin-2-yl)-benzimidazol-1-yl]-methyl]-2-(1H-tetrazol-5-yl)-biphenyl], the hypotensive effect entry is reported as “hypotensive effect”.
Next, `CCCc1nc2c(C)cc(N3CCCCS3(=O)=O)cc2n1Cc1ccc(-c2ccccc2-c2nn[nH]n2)cc1` [Substance G, 4'-[[2-n-propyl-4-methyl-6-(butanesultam-1-yl)-benzimidazol-1-yl]-methyl]-2-(1H-tetrazol-5-yl)-biphenyl]: “hypotensive effect”.
